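These data come from cells grown in 96-well plates and exposed to compound for 48 hours at five concentrations. Abbreviation: GI50, concentration required for 50% inhibition of growth. At the TGI there is no net growth.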
What was measured:
Test in all cases: NCI tumour cell line growth inhibition, 48 h
SF-539 CNS = test system: SF-539 CNS
T-47D breast = test system: T-47D breast
NCI-H23 lung = test system: NCI-H23 lung
HCT-15 colon = test system: HCT-15 colon
NCI-H460 lung = test system: NCI-H460 lung
SNB-19 CNS = test system: SNB-19 CNS
HOP-92 NSCLC = test system: HOP-92 NSCLC
LOX IMVI melanoma = test system: LOX IMVI melanoma
CCRF-CEM leukemia = test system: CCRF-CEM leukemia
RPMI-8226 leukemia = test system: RPMI-8226 leukemia
A549 NSCLC = test system: A549 NSCLC
786-0 renal = test system: 786-0 renal
EKVX NSCLC = test system: EKVX NSCLC
KM12 colon = test system: KM12 colon
HOP-62 NSCLC = test system: HOP-62 NSCLC
SK-MEL-28 melanoma = test system: SK-MEL-28 melanoma
UO-31 renal = test system: UO-31 renal
NCI-H226 lung = test system: NCI-H226 lung
IGROV1 ovarian = test system: IGROV1 ovarian
HT29 colon = test system: HT29 colon
M14 melanoma = test system: M14 melanoma
OVCAR-4 ovarian = test system: OVCAR-4 ovarian
OVCAR-5 ovarian = test system: OVCAR-5 ovarian
SF-268 CNS = test system: SF-268 CNS
SNB-75 CNS = test system: SNB-75 CNS
U251 CNS = test system: U251 CNS
MCF7 breast = test system: MCF7 breast
OVCAR-8 ovarian = test system: OVCAR-8 ovarian
SW-620 colon = test system: SW-620 colon
BT-549 breast = test system: BT-549 breast
MDA-MB-231 breast = test system: MDA-MB-231 breast
HCC-2998 colon = test system: HCC-2998 colon
OVCAR-3 ovarian = test system: OVCAR-3 ovarian
RXF 393 renal = test system: RXF 393 renal
HCT-116 colon = test system: HCT-116 colon
SN12C renal = test system: SN12C renal
HL-60(TB) leukemia = test system: HL-60(TB) leukemia
CAKI-1 renal = test system: CAKI-1 renal
PC-3 prostate = test system: PC-3 prostate
ACHN renal = test system: ACHN renal
SR leukemia = test system: SR leukemia
SK-MEL-5 melanoma = test system: SK-MEL-5 melanoma
MALME-3M melanoma = test system: MALME-3M melanoma
TK-10 renal = test system: TK-10 renal
NCI/ADR-RES ovarian = test system: NCI/ADR-RES ovarian
SK-OV-3 ovarian = test system: SK-OV-3 ovarian
DU-145 prostate = test system: DU-145 prostate
COLO 205 colon = test system: COLO 205 colon
NCI-H522 lung = test system: NCI-H522 lung
UACC-62 melanoma = test system: UACC-62 melanoma
MDA-MB-435 = test system: MDA-MB-435
MOLT-4 leukemia = test system: MOLT-4 leukemia
UACC-257 melanoma = test system: UACC-257 melanoma
SK-MEL-2 melanoma = test system: SK-MEL-2 melanoma
SF-295 CNS = test system: SF-295 CNS

## O=C(c1ccccc1)C(Br)C(Br)c1cccc([N+](=O)[O-])c1 (stereo not given)
SF-539 CNS
  GI50: 2.32 µM
  TGI: 5.05 µM
T-47D breast
  GI50: 2.13 µM
  TGI: 5.65 µM
NCI-H23 lung
  GI50: 2.25 µM
  TGI: 6.45 µM
HCT-15 colon
  GI50: 1.72 µM
  TGI: 3.36 µM
NCI-H460 lung
  GI50: 3.12 µM
  TGI: 14.9 µM
SNB-19 CNS
  GI50: 3.32 µM
  TGI: 12.9 µM
HOP-92 NSCLC
  GI50: 1.55 µM
  TGI: 3.89 µM
LOX IMVI melanoma
  GI50: 1.36 µM
  TGI: 2.77 µM
CCRF-CEM leukemia
  GI50: 0.574 µM
  TGI: 2.78 µM
RPMI-8226 leukemia
  GI50: 2.15 µM
  TGI: 6.24 µM
A549 NSCLC
  GI50: 14.3 µM
  TGI: 32.3 µM
786-0 renal
  GI50: 1.61 µM
  TGI: 3.07 µM
EKVX NSCLC
  GI50: 16.4 µM
  TGI: 34.5 µM
KM12 colon
  GI50: 1.61 µM
  TGI: 3.05 µM
HOP-62 NSCLC
  GI50: 4.26 µM
  TGI: 14.4 µM
SK-MEL-28 melanoma
  GI50: 1.87 µM
  TGI: 3.64 µM
UO-31 renal
  GI50: 1.68 µM
  TGI: 3.14 µM
NCI-H226 lung
  GI50: 1.74 µM
  TGI: 3.46 µM
IGROV1 ovarian
  GI50: 2.75 µM
  TGI: 7.5 µM
HT29 colon
  GI50: 3.45 µM
  TGI: > 100 µM
M14 melanoma
  GI50: 1.78 µM
  TGI: 3.17 µM
OVCAR-4 ovarian
  GI50: 1.49 µM
  TGI: 2.81 µM
OVCAR-5 ovarian
  GI50: 2.46 µM
  TGI: 5.65 µM
SF-268 CNS
  GI50: 2.47 µM
  TGI: 6.77 µM
SNB-75 CNS
  GI50: 6.48 µM
  TGI: 19.8 µM
U251 CNS
  GI50: 1.56 µM
  TGI: 3.02 µM
MCF7 breast
  GI50: 1.28 µM
  TGI: 3.63 µM
OVCAR-8 ovarian
  GI50: 3.35 µM
  TGI: 12.7 µM
SW-620 colon
  GI50: 0.342 µM
  TGI: 1.49 µM
BT-549 breast
  GI50: 2 µM
  TGI: 3.65 µM
MDA-MB-231 breast
  GI50: 1.96 µM
  TGI: 3.79 µM
HCC-2998 colon
  GI50: 1.57 µM
  TGI: 2.95 µM
OVCAR-3 ovarian
  GI50: 1.61 µM
  TGI: 2.96 µM
RXF 393 renal
  GI50: 1.59 µM
  TGI: 2.94 µM
HCT-116 colon
  GI50: 0.864 µM
  TGI: 2.08 µM
SN12C renal
  GI50: 1.88 µM
  TGI: 4.21 µM
HL-60(TB) leukemia
  GI50: 2.04 µM
  TGI: 4.68 µM
CAKI-1 renal
  GI50: 1.76 µM
  TGI: 3.58 µM
PC-3 prostate
  GI50: 2.26 µM
  TGI: 6.84 µM
ACHN renal
  GI50: 1.46 µM
  TGI: 2.77 µM
SR leukemia
  GI50: 1.2 µM
  TGI: 4.53 µM
SK-MEL-5 melanoma
  GI50: 2.89 µM
  TGI: 10.8 µM
MALME-3M melanoma
  GI50: 2 µM
  TGI: 3.84 µM
TK-10 renal
  GI50: 2.81 µM
  TGI: 8.31 µM
NCI/ADR-RES ovarian
  GI50: 2.88 µM
  TGI: 8.82 µM
SK-OV-3 ovarian
  GI50: 11 µM
  TGI: 22.9 µM
DU-145 prostate
  GI50: 2.48 µM
  TGI: 6.33 µM
COLO 205 colon
  GI50: 1.86 µM
  TGI: 3.46 µM
NCI-H522 lung
  GI50: 1.11 µM
  TGI: 2.57 µM
UACC-62 melanoma
  GI50: 1.79 µM
  TGI: 3.56 µM
MDA-MB-435
  GI50: 2.52 µM
  TGI: 7.19 µM
MOLT-4 leukemia
  GI50: 2.09 µM
  TGI: 5.39 µM
UACC-257 melanoma
  GI50: 1.8 µM
  TGI: 3.89 µM
SK-MEL-2 melanoma
  GI50: 3.03 µM
  TGI: 8.48 µM
SF-295 CNS
  GI50: 10.8 µM
  TGI: 24 µM

Source: PubChem BioAssay (NCI)
